Data on two compounds can be found in patent publication US20100184722A1, “INCLUSION COMPLEXES OF ALPHA-CYCLODEXTRIN AND SILDENAFIL SALT” (Shimoda Biotech (Pty) Ltd, priority 2008, published 2010).

Common to all, as to format: physicochemical
A short description of series [1]: Solubility of sildenafil base in ddH2O with cyclodextrins (24 h shaking, HPLC). As to conditions: ACD 0-100 mg/ml, GCD 0-200 mg/ml, HPBCD 0-200 mg/ml, BCD 0-15 mg/ml. Here is the method:
These samples were shaken for 24 hours at 200 rpm. Excess sildenafil citrate was present in each of the vials for the duration of the solubility study. Following the shaking, the vial contents were filtered through 0.45 μm filters to remove any excess solute. The remaining solution was assayed by HPLC for sildenafil base content. […] This is in agreement with the findings of Omani, et al. (2006).

Series [2] is described as follows: pH dependence of sildenafil citrate solubility in phosphate-citrate buffer with or without cyclodextrin. Conditions: phosphate-citrate buffer (0.1M), pH 3.0-8.0. The procedure:
Phosphate-citrate buffer (0.1M) solutions are prepared with pH's of 3.0; 4.0, 5.0; 6.0; 7.0 and 8.0 in ddH2O (de-oxygenated water by purging with nitrogen gas). […] The maximal aqueous solubility for sildenafil citrate appears to occur at pH 5.

Series [3] can be described thus: Solubility of sildenafil citrate in ddH2O with cyclodextrins (24 h shaking, HPLC). As to conditions: ACD 0-100 mg/ml, GCD 0-200 mg/ml, HPBCD 0-200 mg/ml, BCD 0-15 mg/ml. Here is the method:
Solutions were prepared by adding 50 mg of sildenafil citrate to ddH2O samples with varying quantities of the different cyclodextrins. FIG. 1B depicts solubility data of sildenafil citrate complexed with beta-cyclodextrin (BCD) at 0-15 mg/ml These samples were shaken for 24 hours at 200 rpm. Excess sildenafil citrate was present in each of the vials for the duration of the solubility study. Following the shaking, the vial contents were filtered through 0.45 μm filters to remove any excess solute. The remaining solution was assayed by HPLC for sildenafil citrate content.

Structures are written as SMILES. Counter-ions that a name gives are not always drawn.

Regarding `CCCc1nn(C)c2c(=O)[nH]c(-c3cc(S(=O)(=O)N4CCN(C)CC4)ccc3OCC)nc12` [sildenafil base, 5-[2-ethoxy-5-(4-methylpiperazin-1-yl)sulfonylphenyl]-1-methyl-3-propyl-4H-pyrazolo[5,4-e]pyrimidin-7-one], the “aqueous solubility of sildenafil base in the presence of cyclodextrins vs no cyclodextrin” value in series [1] is “improved solubility”. As for `CCCc1nn(C)c2c(=O)[nH]c(-c3cc(S(=O)(=O)N4CCN(C)CC4)ccc3OCC)nc12` [sildenafil citrate, 1-[[3-(6,7-dihydro-1-methyl-7-oxo-3-propyl-1H15-pyrazolo[4,3-d]pyrimidin-5-yl)-4-ethoxyphenyl]sulfonyl]-4-methylpiperazine citrate], in series [2], the “pH of maximal aqueous solubility” value turned out to be 5. The “aqueous solubility of sildenafil citrate in the presence of cyclodextrins vs no cyclodextrin” value in series [3] is given as “improved solubility”.
